According to patent US20050069907A1, “Methods for using double-mutant RNA polymerases with reduced discrimination between non-canonical and canonical nucleoside triphosphates” (priority 2002, published 2005):

How the values were obtained:
Bgl II-cut pPK5 = experiment: Run-off transcription with 2′-OMe- or 2′-azido-NTPs on Bgl II-cut pPK5; type: biochemical
Protocol: (§1) RNAPs were prepared as described (Brieba, L G, and Sousa, R. Biochemistry, 39: 919-923, 2000). Transcription reactions were carried out for 30 min. at room temperature in 40 mM Tris-Cl, pH 8.0, 6 mM MgCl2, 10 mM NaCl, 2 mM spermidine, with templates at 10^−7 M and RNAPs at 2×10^−7 M. All NTPs were used at 0.5 mM, and transcripts were labeled by inclusion of 1% v/v 800 Ci/mM […] in the reaction. Modified NTPs were from Trilink Biotechnologies. Reactions were stopped by addition of an equal volume of 90% formamide, 50 mM EDTA, 0.01% xylene cyanol, resolved by electrophoresis in 20% acrylamide, 1% bis-acrylamide, 1×TBE gels, and visualized on a Molecular Dynamics Phosphorimager.
The ability of the wild-type, Y639F and Y639F/H784A mutants to utilize 2′-OMe-UTP and 2′-OMe-CTP, and 2′-azido-UTP and 2′-azido-CTP in RNA synthesis was tested. On a Bgl II-cut pPK5 (Mentesanas, P. E., et al., “Characterization of Bacteriophage T7 RNA Polymerase Elongation Complexes,” J. Mol. Biol. 302:1049-1062, 2000) template in which CTP and UTP are first incorporated at +14 and +15, respectively, the wild-type enzyme can synthesize 34 nucleotide (nt) run-off transcripts in reactions in which UTP is replaced with 2′-OMe-UTP (FIG. 2a, lane 2) or in reactions in which CTP is replaced with 2′-OMe-CTP (FIG. 2a, lane 3). Relative to the reaction with 4 NTPs (FIG. 2a, lane 1), yields of run-off transcripts are reduced 6-fold and 21-fold in the 2′-OMe-UTP and 2′-OMe-CTP reactions, respectively. When both UTP and CTP are replaced with the corresponding 2′-OMe-NTPs, run-off transcription with the wild-type enzyme is undetectable (FIG. 2a, lane 4). Terminated transcripts are seen in these reactions at positions where 2′-OMe-UMP or 2′-OMe-CMP are incorporated (FIG. 2a, lanes 2-4). The Y639F mutation enhances utilization of the 2′-OMe-NTPs: relative to reactions with 4 NTPs (FIG. 2a, lane 5) runoff transcription with Y639F is reduced, respectively: 2-fold, 8-fold, and 55-fold in reactions with 2′-OMe-UTP, 2′-OMe-CTP, or both (FIG. 2a, lanes 6-8). With the Y639F/H784A double mutant the reduction in run-off transcript synthesis is <15% in reactions with 2′-OMe-UTP (FIG. 2a, lane 10), and only 3-fold and 6-fold in reactions with, respectively, 2′-OMe-CTP or both 2′-OMe-UTP and 2′-OMe-CTP (FIG. 2a, lanes 11, 12).
Identical experiments were carried out with 2′-azido-UTP or 2′-azido-CTP replacing UTP or CTP, respectively (FIG. 2b). With the wild-type enzyme, run-off transcription was reduced 15- and 50-fold in reactions with 2′-azido-UTP or 2′-azido-CTP, respectively (FIG. 2b; lanes 2, 3), and was undetectable in reactions with both 2′-azido-UTP and 2′-azido-CTP (FIG. 2b; lane 4). With Y639F, use of 2′-azido-UTP or 2′-azido-CTP reduced run-off transcription by 70% (FIG. 2b; lanes 6, 7) compared to reactions with 4 NTPs (FIG. 2b; lane 5), while use of both 2′-azido-UTP and 2′-azido-CTP reduced runoff transcription by 11-fold (FIG. 2b, lane 8). With Y639F/H784A use of a single azido-modified NTP reduced run-off transcription by only 40% (FIG. 2b; lanes 10, 11), while use of two 2′-azido-NTPs reduced it by 3-fold (FIG. 2b; lane 12).

HindIII-cut pT75 = experiment: Run-off transcription with 2′-OMe- or 2′-azido-NTPs on HindIII-cut pT75; type: biochemical; conditions: for Reduction of run-off transcript synthesis: 2′-OMe-UTP; for Reduction of run-off transcript yields relative to 4 NTPs: 2′-azido-UTP
Protocol: as §1
With the pPK5 template, UMP and CMP are not incorporated into the first 9 nt of RNA. Incorporation of non-canonical NMPs during synthesis of the first 9 nt of RNA is expected to cause greater reductions in run-off transcript synthesis because the RNA is readily released from the transcription complex during this initial phase of transcription. Therefore, if incorporation of a non-canonical NMP is slow, the RNA will usually dissociate before the NMP is incorporated. […] To see whether NMPs with bulky 2′-substituents could be incorporated during the initial phase of transcription a Hind-III linearized pT75 (Tabor, S. and Richardson, C. C., “A bacteriophage T7 RNA polymerase/promoter system for controlled exclusive expression of specific genes,” Proc. Natl. Acad. Sci. USA 82:1074-1078, 1985) was used. On this template, UMP is first incorporated at +14 while CMP is incorporated at +6 and +7. In reactions with 2′-OMe-UTP run-off transcript synthesis is reduced 11-fold, 5-fold, and <2-fold with the wild-type, and the Y639F, and Y639F/H784A mutants, respectively (FIG. 2c; lanes 2, 6, 10). However, in reactions with 2′-OMe-CTP run-off transcription is undetectable with the wild-type or Y639F enzymes (FIG. 2c; lanes 3, 4, 7, 8), and is reduced ˜700-fold with Y639F/H784A (FIG. 2c; lanes 11, 12).
Run-off transcript yields in reactions with HindIII-cut pT75 and 2′-azido-UTP are reduced 18-, 8.5-, and <2-fold with wild-type and Y639F and Y639F/H784 mutants, respectively (FIG. 2d; lanes 2, 6, 10), relative to reactions with 4 NTPs (FIG. 2d; lanes 1, 5, 9). In reactions with 2′-azido-CTP, or both 2′-azido-CTP and 2′-azido-UTP, run-off transcription is undetectable with the wild-type enzyme (FIG. 2d; lanes 3, 4), is reduced 65-fold with Y639F (FIG. 2d; lanes 7, 8), but is reduced only 7-fold with Y639F/H784A (FIG. 2d; lanes 11, 12).

[1] = both 2′-azido-UTP and 2′-azido-CTP
[2] = 2′-azido-CTP, or both 2′-azido-CTP and 2′-azido-UTP

| Substance | Reduction of run-off transcript yield relative to 4 NTPs (Bgl II-cut pPK5; 2′-OMe-CTP replacing CTP) | Reduction of run-off transcript yield relative to 4 NTPs (Bgl II-cut pPK5; 2′-OMe-UTP replacing UTP) | Reduction of run-off transcription (Bgl II-cut pPK5; 2′-azido-CTP replacing CTP) | Reduction of run-off transcription (Bgl II-cut pPK5; 2′-azido-UTP replacing UTP) | Reduction of run-off transcript yield relative to 4 NTPs (Bgl II-cut pPK5; both 2′-OMe-UTP and 2′-OMe-CTP) | Reduction of run-off transcription (Bgl II-cut pPK5; [1]) | Reduction of run-off transcription (HindIII-cut pT75; 2′-OMe-CTP) | Reduction of run-off transcript synthesis (HindIII-cut pT75) | Reduction of run-off transcription (HindIII-cut pT75; [2]) | Reduction of run-off transcript yields relative to 4 NTPs (HindIII-cut pT75) | Reduction of run-off transcription (Bgl II-cut pPK5; single azido-modified NTP (2′-azido-UTP or 2′-azido-CTP)) |
| --- | --- | --- | --- | --- | --- | --- | --- | --- | --- | --- | --- |
| W.T.: wild-type T7 RNA polymerase [reference compound] | 21 fold | 6 fold | 50 fold | 15 fold | undetectable | undetectable | undetectable | 11 fold | undetectable | 18 fold |  |
| Y639F: T7 RNAP with wild-type tyrosine at position 639 substituted by phenylalanine | 8 fold | 2 fold |  |  | 55 fold | 11 fold | undetectable | 5 fold | 65 fold | 8.5 fold | 70% |
